What all share (type): physicochemical
Data set [1] is described as follows: Dissolution rate comparison of Form A and Form B in size 1 capsules (FIG. 8). Conditions: 50 mg drug substance/capsule, milled to D50 1-10 μm, compared with Form A. The text has this: The products is milled to D50 1-10 μm.
Data set [2] is described as follows: Variable temperature XRPD study. The procedure:
The sample was placed in Anton-Paar TTK 450 chamber at 25° C. The temperature was controlled in-situ through the measurement files: p2853-vt, LRP-1301-39-01.dql, LRP-1301-42-01.dql, LRP-1301-42-02.dql. The sample was heated from 25° C. to 200° C. at 1° C./min. XRPD data were collected from 30° C. to 200° C. every 10° C. Approximately 40 mg of the sample was placed in a Ni-coated sample holder under ambient conditions. The sample was loaded at 25° C.
At 200° C., changes (shifts) in peak position in the high 2-theta region were observed. This may be attributed to the thermal expansion effect.

Data set [3] in a line: Solubility profile of the polymorphic form.
A short description of data set [4]: Thermodynamic stability of the polymorphic form.
Data set [5] can be described thus: Hygroscopicity of the polymorphic form. Particulars: crystalline anhydrous form.

Turning to `Cc1ccc(C(=O)NC2CC2)cc1-n1ncc(C(=O)c2cccc(C#N)c2)c1N` [Form B, 3-[5-amino-4-(3-cyanobenzoyl)-pyrazol-1-yl]-N-cyclopropyl-4-methylbenzamide], in data set [1], the dissolution rate result was “higher dissolution rate than Form A”. In addition, the “form by XRPD after heating to 200° C. and cooling to room temperature” value in data set [2] (cooled to room temperature (20° C.)) is “remained unchanged”. Besides, the solubility profile entry in data set [3] is on record as “favourable solubility profile”. In data set [4], the thermodynamic stability entry is on record as “thermodynamically stable”. Besides, the hygroscopicity result in data set [5] is “non-hygroscopic”.

Take `Cc1ccc(C(=O)NC2CC2)cc1-n1ncc(C(=O)c2cccc(C#N)c2)c1N` [Form A, 3-[5-amino-4-(3-cyanobenzoyl)-pyrazol-1-yl]-N-cyclopropyl-4-methylbenzamide]: the “temperature of conversion to Form B on heating” value in data set [2] (heated from 25° C. to 200° C. at 1° C./min) is “above 100 °C”.
